# Measurements as given in PMC10652874, “Investigation into the mechanism of action of the antimicrobial peptide epilancin 15X” (Frontiers in Microbiology, 2023).
# Where two headings read alike, the source gives them in different places. Where no end group is shown, it is not given here.
# Legend:
# [1] = tested on: LiaRS response in B. subtilis BSF2470; details: cited from earlier work
# Text: (§1) To investigate the effect of epilancin 15X on the cell envelope, we employed the two-component LiaRS reporter system in B. subtilis (lipid II cycle interfering antibiotic response regulator and sensor; [Mascher et al., 2004]). Briefly, the LiaRS assay is a disk diffusion assay used to screen for the ability of compounds to induce β-galactosidase expression in engineered B. subtilis BSF2470 ([Mascher et al., 2004]). Molecules that produce a blue ring around the edge of the zone of growth inhibition are believed to interfere with the lipid II cycle ([Hachmann et al., 2009]). Most membrane disrup ...
# [2] = tested on: LiaRS response in B. subtilis BSF2470; assay: LiaRS disk diffusion reporter assay (β-galactosidase, X-Gal); type: cell-based, Bacillus subtilis; details: 37°C overnight
# Protocol: The LiaRS response was determined via disk diffusion as described previously ([Mascher et al., 2004]). Briefly, B. subtilis strain BSF2470 was grown in LB supplemented with erythromycin (1 μg/mL) overnight at 37°C with shaking. A total of 20 μL of overnight culture was mixed with 100 μL of 20 mg/mL X-Gal (dissolved in DMF) and 5 mL of 0.7% soft LB agar then poured onto a 1.5% LB agar base. The plates were allowed to cool and dry at room temperature for 20 min. The desired molecule was either spotted on a filter paper disk and placed on top of the agar or directly spotted on the agar. The following molecules were tested: ampicillin, 0.5 μL on filter disk, 1 μL directly spotted, 100 mg/mL; compound 1771/LtaS-IN-1, 4 μL, 20 mM (dissolved in DMSO); epilancin 15X, 4 μL, 5 mM; vancomycin, 1 μL, 100 mg/mL; nisin, 4 μL, 2 mM; bacitracin, 4 μL on filter disk, 5 μL directly spotted, 100 mg/mL; water, 5 μL; magainin 2, 10 μL, 1 mM; melittin, 10 μL, 1 mM. The plate was incubated at 37°C overnight. After overnight incubation, the plate was imaged. Compound 1771 (CS-0114233) was purchased from ChemScene LLC.
# as §1, with “[…] The compound 1771, also called LtaS-IN-1, inhibits lipoteichoic acid (LTA) synthesis ([Richter et al., 2013]) and to the best of our knowledge has not been tested in the LiaRS assay.” for “Most membrane disrup ...”
# S. carnosus TM300 [3] = assay: MIC determination in 96-well microtiter plate; type: cell-based, Staphylococcus carnosus; details: BHI, 37°C, 10^5 CFU/mL, OD600 after 18 h
# Protocol: (§2) MIC determination was performed in a 96-well microtiter plate as described previously ([Wu et al., 2019]). Sensitive bacterial culture was grown in the appropriate medium (BHI for S. carnosus; LB for B. subtilis) at 37°C overnight. The culture was diluted to 10^5 CFU/mL in medium in each well. Epilancin 15X or its analog was dissolved in water and serially diluted to obtain final concentrations of 20, 10, 5, 2.5, 1.25, 0.625, 0.3125, 0.156, 0.078, 0.039, 0.019, and 0.009 μM. OD600 readings were obtained after 18 h using a Synergy H4 Hybrid Multi-Mode Microplate Reader (BioTeK). Cell-free untreated medium, and untreated cell culture were used as negative controls. The MIC of nisin against B. subtilis BSF2470 was determined following the same methods.
# [4] = tested on: B. subtilis BSF2470 (1A980); assay: MIC determination in 96-well microtiter plate; type: cell-based, Bacillus subtilis; details: LB, 37°C, 10^5 CFU/mL, OD600 after 18 h
# Protocol: as §2
# [5] = Liposome leakage assay using flow cytometry (HaloTag / AF488 ligand); type: biochemical; details: 1 μM peptide, 37°C, 1 h
# S. carnosus TM300 [6] = assay: Membrane permeability study with propidium iodide (flow cytometry); type: cell-based, Staphylococcus carnosus; details: S. carnosus TM300, 20 min exposure, 0.5x, 1x, 4x MIC, n = 3
# Protocol: (§3) Cultures of S. carnosus TM300 and B. subtilis BSF2470 were grown to OD600 1.0 and diluted to OD600 0.1 in fresh BHI or LB medium, respectively. The culture was then combined with a final concentration of 25 μM PI (ThermoFisher P3566), 1 mM HEPES, and 1 mM glucose. […] Another two tubes were prepared without antibiotic treatment as controls. The culture was analyzed with a BD Biosciences LSR II flow cytometer for S. carnosus and a BD Biosciences LSRFortessa for B. subtilis using excitation at 488 nm with an argon laser and measurement of emission through a band-pass filter at 695/40 nm. A minimum of 30,000 events were detected for each sample. The experiment was repeated three times, and the mean PI uptake value was determined. The results were calibrated such that the mean PI uptake from the 4x MIC nisin-treated cell culture was set as 100% PI uptake.
# S. carnosus TM300 [7] = assay: Bright field (Airyscan) microscopy; type: cell-based, Staphylococcus carnosus; details: S. carnosus TM300, 0.5 MIC
# B. subtilis BSF2470 = assay: Membrane permeability study with propidium iodide (flow cytometry); type: cell-based, Bacillus subtilis; details: B. subtilis BSF2470, 20 min exposure, 0.5x, 1x, 4x MIC, n = 3
# Protocol: as §3
# S. carnosus TM300 [8] = assay: Agar diffusion bioactivity assay with lipids in flanking wells; type: cell-based, Staphylococcus carnosus; details: S. carnosus TM300 on BHI agar, overnight
# Protocol: For agar diffusion antimicrobial activity assays, the autoclaved 1.5% agar was prepared in the appropriate medium and cooled in a 40°C water bath for 15 min. A total of 50 μL overnight culture of the sensitive strain was added to the agar and kept in the water bath. A total of 25 mL seeded agar was poured into a sterile OmniTray (Nunc) and allowed to solidify at room temperature for 30 min. An additional 35 mL of seeded agar was poured over the lower solidified agar layer. A sterile 96-well PCR plate was placed in the molten agar upper layer, and the agar was allowed to solidify at 25°C for 30 min. After sufficient solidification, the 96-well PCR plate was removed. Then 20 μL volume of each peptide was dispensed into the wells. Plates were left at 25°C for 30 min until the wells were dried, and the plates were incubated at 37°C overnight. The antibacterial activity was determined by the presence or absence of growth inhibition.
# Figure S5. (A) Zones of growt h inhibition of epilancin 15X a nd nisin A against S. carnosus TM30 0 grown on BHI agar plates. The indicated amounts of antibiotics were placed in the well shown in the center of the zone of inhibition. […]
compound,measurement,setting,value
polymyxin,LiaRS response,"[1]; ref Wex et al., 2021",do not induce a LiaRS response
CC[C@@]1([C@@H]2O[C@@H]([C@H]3O[C@@](O)(CO)[C@H](C)C[C@@H]3C)C[C@@H]2C)CC[C@H]([C@]2(C)CC[C@]3(C[C@H](O)[C@@H](C)[C@@H]([C@@H](C)[C@@H](OC)[C@H](C)C(=O)O)O3)O2)O1 [monensin],LiaRS response,"[1]; ref Wex et al., 2021",do not induce a LiaRS response
magainin 2,LiaRS response (blue ring at the edge of the zone of inhibition),[2],did not induce a LiaRS response
O=C(COC(=O)Cc1coc2ccc3ccccc3c12)Nc1nnc(-c2ccccc2)o1 [LtaS-IN-1],LiaRS response (blue ring at the edge of the zone of inhibition),[2],did not induce a blue zone
melittin,LiaRS response (blue ring at the edge of the zone of inhibition),[2],did not induce a LiaRS response
CN[C@H](CC(C)C)C(=O)N[C@H]1C(=O)N[C@@H](CC(N)=O)C(=O)N[C@H]2C(=O)N[C@H]3C(=O)N[C@H](C(=O)N[C@H](C(=O)O)c4cc(O)cc(O)c4-c4cc3ccc4O)[C@H](O)c3ccc(c(Cl)c3)Oc3cc2cc(c3O[C@@H]2O[C@H](CO)[C@@H](O)[C@H](O)[C@H]2O[C@H]2C[C@](C)(N)[C@H](O)[C@H](C)O2)Oc2ccc(cc2Cl)[C@H]1O [vancomycin],LiaRS response (blue ring at the edge of the zone of inhibition),[2],induce a LiaRS response
CC1(C)S[C@@H]2[C@H](NC(=O)[C@H](N)c3ccccc3)C(=O)N2[C@H]1C(=O)O [ampicillin],LiaRS response (blue ring at the edge of the zone of inhibition),[2],did not induce a LiaRS response
Bacitracin,LiaRS response (blue ring at the edge of the zone of inhibition),[2],induce a LiaRS response
tunicamycin,LiaRS response,"[1]; B. subtilis, ref Mascher et al., 2004",positive LiaRS response
colistin,LiaRS response,"[1]; ref Wex et al., 2021",do not induce a LiaRS response
"nisin: lantibiotic, lipid II binding pore former, positive control (ITSISLCTPGCKTGALMGCNMKTATCHCSIHVSK; not fully specified (some residues, bridges); cysteine pairing not given here; UniProt P13068 24-57, looked up) [reference compound]",MIC,S. carnosus TM300 [3],0.5 µM
same,MIC,[4],0.625 µM
same,fluorescence signal (pore formation),[5]; POPC-cholesterol liposomes with 0.1% lipid II,substantial increase in fluorescence signal
same,fluorescence signal (pore formation) compared to buffer control,[5]; POPC-cholesterol liposomes without lipid II,no increase in fluorescence signal
same,LiaRS response (blue ring at the edge of the zone of inhibition),[2],induce a LiaRS response
same,PI uptake (membrane disruption),S. carnosus TM300 [6],more substantial
same,aggregation phenotype of cells (brightfield),S. carnosus TM300 [7],Aggregation was not observed
same,PI uptake (membrane disruption),B. subtilis BSF2470,more substantial
same,antagonism of bioactivity (zone of growth inhibition) by purified S. aureus LTA,S. carnosus TM300 [8],not
